Laboratory results from patent US4232037A, “2,6-Dialkoxybenzamides, intermediates, pharamaceutical compositions and methods for treatment of psychotic disorders” (priority 1978, dated 1980).
Structures can show the parent of a compound that is named as a salt. Where two headings read alike, the source gives them in different places.

Legend:
[1] = experimental animals; cited from earlier work
[2] = in vivo; cited from earlier work
[3] = system: apomorphine induced hyperactivity; test: Block of apomorphine-induced hyperactivity in rats (number of animals displaying hyperactivity); type: in vivo, Male Sprague-Dawley rats; settings: for ED50: Rattus norvegicus, 1 h
Method: Male Sprague-Dawley rats weighing 225-275 g were used. […] The compounds were injected 60 minutes prior to apomorphine hydrochloride (1 mg/kg) which was injected subcutaneously into the neck.
Directly after injection, the animals were placed in the cages, one in each cage. Scoring of the stereotypies were performed by two separate methods. The first scoring system was a modified version of the system introduced by Costall and Naylor (1973). The strength of the stereotypy was scored on a 0-3 scale as follows:
In the second system the number of animals displaying hyperactivity caused by apomorphine were scored. […] Saline controls were always run simultaneously. ED50 's are in the first scoring system (0-3 scale), the doses which reduce the strength of the stereotypies by 50% over the observation period of 60 minutes. ED50 's of the second scoring system are the doses which reduce the number of animals showing hyperactivity by 50% over the observation period of 60 minutes.

[4] = system: apomorphine induced stereotypies; test: Block of apomorphine-induced stereotypies in rats (0-3 scale scoring); type: in vivo, Male Sprague-Dawley rats; settings: for ED50: Rattus norvegicus, 1 h; for Stereotypies ED50: rat, hydrochloride, 60 min
Method: Male Sprague-Dawley rats weighing 225-275 g were used. […] The compounds were injected 60 minutes prior to apomorphine hydrochloride (1 mg/kg) which was injected subcutaneously into the neck. […] Directly after injection, the animals were placed in the cages, one in each cage. Scoring of the stereotypies were performed by two separate methods. The first scoring system was a modified version of the system introduced by Costall and Naylor (1973). […] Chewing, biting and | licking. In the second system the number of animals displaying hyperactivity caused by apomorphine were scored. […] Saline controls were always run simultaneously.

[5] = system: DA receptors in the brain; test: Apomorphine antagonism in rats (stereotypies and hyperactivity together, results in words); type: in vivo, Male Sprague-Dawley rats; settings: rat, p.o., Table 3
[6] = ip, i.p., 60 min before apomorphine hydrochloride 1 mg/kg s.c., 60 min observation, read-out: Hyperactivity ED50
[7] = po, p.o., same test system, read-out: Hypractivity ED50
[8] = po, p.o., same test system, read-out: Hypractivity ED50 (in parentheses, mg/kg)
[9] = ip, i.p., 60 min before apomorphine hydrochloride 1 mg/kg s.c., 60 min observation, read-out: Stereotypies ED50
[10] = po, p.o., same test system, read-out: Stereotypies ED50
[11] = po, p.o., same test system, read-out: Stereotypies ED50 (in parentheses, mg/kg)
[12] = i.p., 60 min before apomorphine hydrochloride 1 mg/kg s.c., 60 min observation

CCN1CCCC1CNC(=O)c1cc(S(N)(=O)=O)ccc1OC (stereo not shown) [Sulpiride, reference compound]
catalepsy [1]: weak catalepsy | extrapyramidal side effects [2]: weak extrapyramidal side effects | ED50 [3, 6]: 50 µmol/kg | ED50 [3, 7]: > 586 µmol/kg | ED50 [3, 8]: > 200 mg/kg | ED50 [4, 9]: 293 µmol/kg | ED50 [4, 10]: > 586 µmol/kg | ED50 [4, 11]: > 200 mg/kg | activity after oral administration [5]: lost all activity

CCN1CCCC1CNC(=O)c1c(OC)ccc(Br)c1OC.Cl (racemic) [Example 7, N-Ethyl-2-(3-bromo-2,6-dimethoxybenzamidomethyl)pyrrolidine hydrochloride]
ED50 [3, 6]: 11 µmol/kg | ED50 [3, 7]: 17 µmol/kg | ED50 [3, 8]: 7 mg/kg | ED50 [4, 9]: 23 µmol/kg | ED50 [4, 10]: 47 µmol/kg | ED50 [4, 11]: 19 mg/kg

CCN1CCCC1CNC(=O)c1c(OC)c(Cl)cc(Cl)c1OC (racemic) [Example 10, N-Ethyl-2-(3,5-dichloro-2,6-dimethoxybenzamidomethyl) pyrrolidine]
ED50 [3, 6]: 3 µmol/kg | ED50 [4, 9]: 5.8 µmol/kg

CCN1CCCC1CNC(=O)c1c(OC)c(Cl)cc(Br)c1OC (racemic) [Example 11, N-Ethyl-2-(3-bromo-5-chloro-2,6-dimethoxybenzamidomethyl) pyrrolidine]
ED50 [3, 6]: 3.9 µmol/kg | ED50 [4, 9]: 6.2 µmol/kg

CCN1CCCC1CNC(=O)c1c(OC)ccc(Cl)c1OC (racemic) [Example 8, N-Ethyl-2-(3-chloro-2,6-dimethoxybenzamidomethyl)pyrrolidine hydrochloride]
ED50 [3, 6]: 30 µmol/kg | ED50 [4, 9]: 47 µmol/kg

CCN1CCCC1CNC(=O)c1c(OC)ccc(Br)c1OC.Cl (single isomer, unassigned) [Example 14, N-Ethyl-2-(3-bromo-2,6-dimethoxybenzamidomethyl) pyrrolidine hydrochloride]
Stereotypies ED50 [4, 12]: 5.6 µmol/kg

CCN1CCCC1CNC(=O)c1c(OC)c(Br)cc(Br)c1OC.Cl (racemic) [Example 9, N-Ethyl-2-(3,5-dibromo-2,6-dimethoxybenzamidomethyl) pyrrolidine hydrochloride]
ED50 [3, 6]: 1.8 µmol/kg | ED50 [3, 7]: 5.5 µmol/kg | ED50 [3, 8]: 2.7 mg/kg | ED50 [4, 9]: 5.3 µmol/kg | ED50 [4, 10]: 8.2 µmol/kg | ED50 [4, 11]: 4 mg/kg

CCN1CCCC1CNC(=O)c1c(OC)ccc(Br)c1OC.Cl (single isomer, unassigned) [Example 15, N-Ethyl-2-(3-bromo-2,6-dimethoxybenzamidomethyl) pyrrolidine hydrochloride]
Hyperactivity ED50 ([3]; rat, i.p., 60 min before apomorphine hydrochloride 1 mg/kg s.c., 60 min observation, hydrochloride, 60 min): ~ 123 μmol/kg | Stereotypies ED50 [4, 12]: > 196 µmol/kg

CCN1CCCC1CNC(=O)c1c(OC)c(Br)cc(Br)c1OC (single isomer, unassigned) [Example 12, N-Ethyl-2-(3,5-dibromo-2,6-dimethoxybenzamidomethyl) pyrrolidine]
ED50 [3, 6]: ~11 µmol/kg | ED50 [4, 9]: > 178 µmol/kg

CCN1CCCC1CNC(=O)c1c(OC)c(Br)cc(Br)c1OC (single isomer, unassigned) [Example 13, N-Ethyl-2-(3,5-dibromo-2,6-dimethoxybenzamidomethyl) pyrrolidine hydrochloride]
ED50 [3, 6]: 0.33 µmol/kg | ED50 [4, 9]: 3.3 µmol/kg
